From patent US10899732B2, “Substituted benzamides useful as sodium channel blockers” (GENENTECH, INC., priority 2015, dated 2021)
Where a name gives a salt, the structure may show the parent alone.

Tests used:
NaV1.7 = biological target: T1, NaV1.7 (Homo sapiens, UniProt Q15858); assay: Patch voltage clamp electrophysiology assay (EP), NaV1.7 in HEK-293 cells; type: cell-based; details: HEK-293, β1 coexpressed, held at -60 mV (inactivated state)
T1 construct: expression vector containing the full-length cDNA coding for the desired human sodium channel α-subunit; expressed in transfected cells; host or cells: HEK-293
Excerpt: (§1) Electrophysiological Assay (EP) (In Vitro Assay)
(§2) Patch voltage clamp electrophysiology allows for the direct measurement and quantification of block of voltage-gated sodium channels (NaV's), and allows the determination of the time- and voltage-dependence of block which has been interpreted as differential binding to the resting, open, and inactivated states of the sodium channel (Hille, B., Journal of General Physiology (1977), 69: 497-515).
(§3) The following patch voltage clamp electrophysiology studies were performed on representative compounds of the invention using human embryonic kidney cells (HEK), permanently transfected with an expression vector containing the full-length cDNA coding for the desired human sodium channel α-subunit, grown in culture media containing 10% FBS, 1% PSG, and 0.5 mg/mL G418 at 37° C. with 5% CO2. […] NaV1.7 and NaV1.5 cDNAs (NM_002977 and AC137587; SCN5A, respectively) were stably expressed in HEK-293 cells. The β1 subunit was coexpressed in both the NaV1.7 and NaV1.5 cell lines.
(§4) Sodium currents were measured using the patch clamp technique in the whole-cell configuration using either a PatchXpress automated voltage clamp or manually using an Axopatch 200B (Axon Instruments) or Model 2400 (A-M systems) amplifier. The manual voltage clamp protocol was as follows: Borosilicate glass micropipettes were fire-polished to a tip diameter yielding a resistance of 2-4 Mohms in the working solutions. The pipette was filled with a solution comprised of: 5 mM NaCl, 10 mM CsCl, 120 mM CsF, 0.1 mM CaCl2, 2 mM MgCl2, 10 mM HEPES, 10 mM EGTA; and adjusted to pH 7.2 with CsOH. The external solution had the following composition: 140 mM NaCl, 5 mM KCl, 2 mM CaCl2, 1 mM MgCl2, 10 mM HEPES; and adjusted to pH 7.4 with NaOH. In some studies, the external sodium was reduced by equimolar replacement with choline. Osmolarity in the CsF internal and NaCl external solutions was adjusted to 300 mOsm/kg and 310 mOsm/kg with glucose, respectively. All recordings were performed at ambient temperature in a bath chamber with a volume of 150 μL. Control sodium currents were measured in 0.5% DMSO. Controls and representative compounds of the invention were applied to the recording chamber through a 4-pinch or 8-pinch valve bath perfusion system manufactured by ALA Scientific Instruments.
(§5) Currents were recorded at 40 kHz sampling frequency, filtered at […], and stored using a Digidata-1322A analogue/digital interface with the pClamp software (Axon Instruments). Series resistance compensation was applied (60-80%). […] All statistics in this study are given as mean±SD.
(§6) The membrane potential was maintained at a voltage where inactivation of the channel is complete (which was −60 mV for both NaV1.7 and NaV1.5). The voltage is then stepped back to a very negative (Vhold=[…]) voltage for 20 ms and then a test pulse is applied to quantify the compound block. The 20 ms brief repolarization was long enough for compound-free channels to completely recover from fast inactivation, but the compound-bound channels recovered more slowly such that negligible recovery could occur during this interval. The percent decrease in sodium current following wash-on of compound was taken as the percent block of sodium channels.

NaV1.5 = biological target: T2, NaV1.5 (Homo sapiens, UniProt Q14524); assay: Patch voltage clamp electrophysiology assay (EP), NaV1.5 in HEK-293 cells; type: cell-based; details: HEK-293, β1 coexpressed, held at -60 mV (inactivated state)
T2 construct: expression vector containing the full-length cDNA coding for the desired human sodium channel α-subunit; expressed in transfected cells; host or cells: HEK-293
Excerpt: as §1, §2, §3, §4, §5, §6

hNav1.7 = biological target: T3, hNav1.7 (Homo sapiens, UniProt Q15858); assay: Tritiated sulfonamide competitive binding to membranes from cells expressing hNav1.7 and the β1 subunit (LBA); details: competition with 100 pM [3H]compound, 18 h, room temperature; read-out: Nav1.7 (LBA)
T3 construct: expressed in transfected cells
Procedure: Tritiated Sulfonamide Binding to Membranes Isolated from Cells that Heterologously Express hNav1.7 and the β1 Subunit
Preparation of membranes containing recombinantly expressed sodium channels: Frozen recombinant cell pellets were thawed on ice and diluted to 4 times the cell pellet weight with ice cold 50 mM Tris HCl, pH 7.4 buffer. The cell suspensions were homogenized on ice using a motorized glass dounce homogenizer. Homogenates were further diluted 8.4 times with ice cold 50 mM Tris HCl, pH 7.4 buffer and then centrifuged at 200×g at 4° C. for 15 min. The supernatants were collected and centrifuged at 10000×g at 4° C. for 50 min. The pellets were then re-suspended in 100 mM NaCl, 20 mM Tris HCl, pH 7.4 buffer containing 1% v/v protease inhibitors (Calbiochem) and re-homogenized on ice. The homogenized membranes were then processed through a syringe equipped with a 26 gauge needle. Protein concentrations were determined by Bradford Assay and the membranes were stored at −80° C.
Saturation experiments. A competitive NaV1.7 inhibitor having a methyl group was tritiated. Three tritiums were incorporated in place of methyl hydrogens to generate [^3H]compound. Binding of this radioligand was preformed in 5 mL borosilicate glass test tubes at room temperature. Binding was initiated by adding membranes to increasing concentrations of [^3H]compound in 100 mM NaCl, 20 mM Tris HCl, pH 7.4 buffer containing 0.01% w/v bovine serum albumin (BSA) for 18 h. Non-specific binding was determined in the presence of 1 μM unlabelled compound. After 18 h, the reactants were filtered through GF/C glass fiber filters presoaked in 0.5% w/v polyethylene imine. Filters were washed with 15 mL ice cold 100 mM NaCl, 20 mM Tris HCl, pH 7.4 buffer containing 0.25% BSA to separate bound from free ligand. [^3H]compound bound to filters was quantified by liquid scintillation counting.
Binding reactions were performed in 96-well polypropylene plates at room temperature for 18 h. In 360 μL, membranes were incubated with 100 pM [^3H]compound and increasing concentrations of Test Compound. Non-specific binding was defined in the presence of 1 μM unlabelled compound. Reactions were transferred and filtered through 96-well glass fiber/C filter plates presoaked with 0.5% polyethylene imine. The filtered reactions were washed 5 times with 200 μL ice cold buffer containing 0.25% BSA. Bound radioactivity was determined by liquid scintillation counting.
Data Analysis: For saturation experiments, non-specific binding was subtracted from total binding to provide specific binding and these values were recalculated in terms of pmol ligand bound per mg protein. Saturation curves were constructed and dissociation constants were calculated using the single site ligand binding model: Beq=(Bmax*X)/(X+Kd), where Beq is the amount of ligand bound at equilibrium, Bmax is the maximum receptor density, Kd is the dissociation constant for the ligand, and X is the free ligand concentration. For competition studies percent inhibition was determined and IC50 values were calculated using a 4 parameter logistic model (% inhibition=(A+((B−A)/(1+((x/C)^D)))) using XLfit, where A and B are the maximal and minimum inhibition respectively, C is the IC50 concentration and D is the (Hill) slope.

T2 sequence (Q14524 whole entry): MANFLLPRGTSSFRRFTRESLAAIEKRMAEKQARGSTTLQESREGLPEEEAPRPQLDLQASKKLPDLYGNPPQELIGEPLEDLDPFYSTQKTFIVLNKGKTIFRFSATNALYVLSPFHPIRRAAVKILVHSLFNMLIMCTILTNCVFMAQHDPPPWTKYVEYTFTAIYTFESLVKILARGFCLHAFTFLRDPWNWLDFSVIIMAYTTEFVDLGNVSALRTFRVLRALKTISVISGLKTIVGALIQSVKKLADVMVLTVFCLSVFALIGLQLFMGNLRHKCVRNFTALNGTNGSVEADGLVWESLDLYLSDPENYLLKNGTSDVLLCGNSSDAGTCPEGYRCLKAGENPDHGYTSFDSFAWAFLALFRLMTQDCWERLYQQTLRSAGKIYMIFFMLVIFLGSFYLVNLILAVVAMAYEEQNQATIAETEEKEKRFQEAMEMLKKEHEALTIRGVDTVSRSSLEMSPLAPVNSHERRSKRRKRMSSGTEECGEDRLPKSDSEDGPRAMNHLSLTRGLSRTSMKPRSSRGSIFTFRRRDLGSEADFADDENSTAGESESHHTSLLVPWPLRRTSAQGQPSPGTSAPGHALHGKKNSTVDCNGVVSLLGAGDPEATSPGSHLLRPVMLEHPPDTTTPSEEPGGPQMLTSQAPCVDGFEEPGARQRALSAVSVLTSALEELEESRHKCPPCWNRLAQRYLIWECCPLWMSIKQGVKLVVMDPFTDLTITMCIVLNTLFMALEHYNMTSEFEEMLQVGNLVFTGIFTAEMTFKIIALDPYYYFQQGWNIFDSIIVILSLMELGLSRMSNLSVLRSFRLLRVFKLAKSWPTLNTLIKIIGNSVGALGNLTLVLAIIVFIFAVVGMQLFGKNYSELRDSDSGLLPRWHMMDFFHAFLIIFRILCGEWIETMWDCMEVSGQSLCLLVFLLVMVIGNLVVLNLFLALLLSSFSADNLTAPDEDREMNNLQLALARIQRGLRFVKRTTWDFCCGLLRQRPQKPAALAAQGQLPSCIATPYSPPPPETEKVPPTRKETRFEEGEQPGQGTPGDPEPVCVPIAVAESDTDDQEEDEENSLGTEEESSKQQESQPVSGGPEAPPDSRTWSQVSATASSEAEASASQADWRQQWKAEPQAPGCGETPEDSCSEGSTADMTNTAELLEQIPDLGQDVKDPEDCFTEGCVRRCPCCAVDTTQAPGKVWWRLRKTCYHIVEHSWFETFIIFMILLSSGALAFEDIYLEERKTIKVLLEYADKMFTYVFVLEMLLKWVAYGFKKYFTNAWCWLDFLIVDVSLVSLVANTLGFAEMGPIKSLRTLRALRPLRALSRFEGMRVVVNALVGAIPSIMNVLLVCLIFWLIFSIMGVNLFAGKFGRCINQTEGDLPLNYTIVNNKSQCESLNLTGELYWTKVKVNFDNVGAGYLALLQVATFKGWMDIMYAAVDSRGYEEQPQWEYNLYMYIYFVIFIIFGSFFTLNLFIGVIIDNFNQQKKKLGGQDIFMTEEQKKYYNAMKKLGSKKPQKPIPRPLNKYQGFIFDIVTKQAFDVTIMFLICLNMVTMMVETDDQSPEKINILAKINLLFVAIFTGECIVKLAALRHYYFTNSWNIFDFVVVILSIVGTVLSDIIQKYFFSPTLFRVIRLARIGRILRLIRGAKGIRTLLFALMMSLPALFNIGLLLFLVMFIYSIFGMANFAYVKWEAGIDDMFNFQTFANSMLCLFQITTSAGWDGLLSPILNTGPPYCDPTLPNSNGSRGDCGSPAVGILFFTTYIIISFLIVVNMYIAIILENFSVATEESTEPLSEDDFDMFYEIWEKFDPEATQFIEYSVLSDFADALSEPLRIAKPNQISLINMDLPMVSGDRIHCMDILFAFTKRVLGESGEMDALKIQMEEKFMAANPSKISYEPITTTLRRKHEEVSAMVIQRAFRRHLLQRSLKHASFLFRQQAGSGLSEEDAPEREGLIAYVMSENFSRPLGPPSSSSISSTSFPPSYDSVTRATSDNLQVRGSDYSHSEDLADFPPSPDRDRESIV
T3 sequence (Q15858 1-1977 isoform Q15858-3): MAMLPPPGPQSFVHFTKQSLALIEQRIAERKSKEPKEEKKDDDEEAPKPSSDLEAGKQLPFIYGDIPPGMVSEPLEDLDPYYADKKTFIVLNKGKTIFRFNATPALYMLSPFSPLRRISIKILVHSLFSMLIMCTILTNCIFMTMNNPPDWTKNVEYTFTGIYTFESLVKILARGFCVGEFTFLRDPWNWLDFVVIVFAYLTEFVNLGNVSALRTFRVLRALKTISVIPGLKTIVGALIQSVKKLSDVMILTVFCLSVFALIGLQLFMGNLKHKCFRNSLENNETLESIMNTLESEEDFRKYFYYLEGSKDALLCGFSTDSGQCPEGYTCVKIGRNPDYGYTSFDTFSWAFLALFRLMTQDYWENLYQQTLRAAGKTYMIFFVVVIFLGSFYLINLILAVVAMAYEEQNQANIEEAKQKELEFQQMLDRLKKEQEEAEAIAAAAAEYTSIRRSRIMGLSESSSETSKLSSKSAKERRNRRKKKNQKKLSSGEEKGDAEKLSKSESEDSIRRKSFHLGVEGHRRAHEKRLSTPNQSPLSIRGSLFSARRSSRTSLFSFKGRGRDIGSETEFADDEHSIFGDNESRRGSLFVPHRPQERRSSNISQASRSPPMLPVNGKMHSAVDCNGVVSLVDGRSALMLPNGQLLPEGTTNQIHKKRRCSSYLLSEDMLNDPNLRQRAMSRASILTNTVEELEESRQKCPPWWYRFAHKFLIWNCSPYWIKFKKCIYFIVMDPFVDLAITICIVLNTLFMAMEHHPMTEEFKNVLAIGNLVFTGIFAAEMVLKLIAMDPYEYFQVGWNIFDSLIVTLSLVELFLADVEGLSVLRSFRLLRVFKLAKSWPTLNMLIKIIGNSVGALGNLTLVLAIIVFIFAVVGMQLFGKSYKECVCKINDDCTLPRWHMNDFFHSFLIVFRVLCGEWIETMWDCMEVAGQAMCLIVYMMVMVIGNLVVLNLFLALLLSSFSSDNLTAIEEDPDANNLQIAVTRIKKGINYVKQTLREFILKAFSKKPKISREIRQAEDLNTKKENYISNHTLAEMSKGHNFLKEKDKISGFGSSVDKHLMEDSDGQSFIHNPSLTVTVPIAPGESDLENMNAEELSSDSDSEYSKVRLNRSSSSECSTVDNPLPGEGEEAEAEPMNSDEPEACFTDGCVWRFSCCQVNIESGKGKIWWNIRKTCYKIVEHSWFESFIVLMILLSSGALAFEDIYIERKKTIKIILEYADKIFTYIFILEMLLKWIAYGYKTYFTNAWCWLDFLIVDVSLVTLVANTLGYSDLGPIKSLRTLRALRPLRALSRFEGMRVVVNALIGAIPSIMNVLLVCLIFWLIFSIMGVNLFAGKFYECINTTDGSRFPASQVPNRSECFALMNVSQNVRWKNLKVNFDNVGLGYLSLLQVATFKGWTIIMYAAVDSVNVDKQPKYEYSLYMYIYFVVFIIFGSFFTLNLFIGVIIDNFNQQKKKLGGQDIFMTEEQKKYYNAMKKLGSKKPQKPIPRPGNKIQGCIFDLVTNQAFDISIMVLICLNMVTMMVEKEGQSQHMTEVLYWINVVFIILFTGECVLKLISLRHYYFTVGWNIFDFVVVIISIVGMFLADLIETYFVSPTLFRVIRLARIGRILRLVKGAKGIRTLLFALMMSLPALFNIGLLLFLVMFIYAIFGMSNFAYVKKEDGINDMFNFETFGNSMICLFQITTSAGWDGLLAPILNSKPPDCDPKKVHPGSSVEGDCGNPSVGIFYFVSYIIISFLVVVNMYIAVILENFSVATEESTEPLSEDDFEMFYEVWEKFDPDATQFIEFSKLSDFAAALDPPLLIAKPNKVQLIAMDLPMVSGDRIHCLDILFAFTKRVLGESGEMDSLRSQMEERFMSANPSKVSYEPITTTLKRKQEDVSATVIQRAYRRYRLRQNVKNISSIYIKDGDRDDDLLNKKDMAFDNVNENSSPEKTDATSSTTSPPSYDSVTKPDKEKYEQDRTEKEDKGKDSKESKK
T3 sequence (Q07699 19-218 partner): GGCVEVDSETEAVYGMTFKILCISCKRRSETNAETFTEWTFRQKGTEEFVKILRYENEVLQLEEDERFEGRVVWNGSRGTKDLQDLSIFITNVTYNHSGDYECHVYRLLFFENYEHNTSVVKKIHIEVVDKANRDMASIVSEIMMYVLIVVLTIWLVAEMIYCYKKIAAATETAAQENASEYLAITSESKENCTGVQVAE
T1 sequence (Q15858 1-1977 isoform Q15858-3): as the sequence (Q15858 1-1977 isoform Q15858-3) above
T1 sequence (Q07699 19-218 partner): as the sequence (Q07699 19-218 partner) above

Row | Structure (SMILES) | IC50 (NaV1.7) | IC50 (NaV1.5) | IC50 (hNav1.7)
1 | Cc1nn(C2CCN(Cc3cc(Cl)ccc3C(F)(F)F)CC2)c2cc(F)c(C(=O)NS(=O)(=O)C3CC3)cc12 [Example 8, 1-(1-(5-chloro-2-(trifluoromethyl)benzyl)piperidin-4-yl)-N-(cyclopropylsulfonyl)-6-fluoro-3-methyl-1H-indazole-5-carboxamide] | 26 nM | 610 nM | 5 nM
2 | Cc1nn(C2CCN([C@H](C)c3cc(Cl)cc(Cl)c3)CC2)c2cc(F)c(C(=O)NS(=O)(=O)C3CC3)cc12 [Example 9, (R)-N-(cyclopropylsulfonyl)-1-(1-(1-(3,5-dichlorophenyl)ethyl)piperidin-4-yl)-6-fluoro-3-methyl-1H-indazole-5-carboxamide] | 46 nM | 8300 nM | 6 nM
3 | Cc1nn(C2CCN([C@@H](C)c3cc(Cl)cc(Cl)c3)CC2)c2cc(F)c(C(=O)NS(=O)(=O)C3CC3)cc12 [Example 10, (S)-N-(cyclopropylsulfonyl)-1-(1-(1-(3,5-dichlorophenyl)ethyl)piperidin-4-yl)-6-fluoro-3-methyl-1H-indazole-5-carboxamide] | 33 nM | 14000 nM | 10 nM
4 | Cc1nn([C@@H]2CCN(Cc3cc(Cl)cc(OC(F)(F)F)c3)C2)c2cc(F)c(C(=O)NS(=O)(=O)C3CC3)cc12 [Example 11, (R)-1-(1-(3-chloro-5-(trifluoromethoxy)benzyl)pyrrolidin-3-yl)-N-(cyclopropylsulfonyl)-6-fluoro-3-methyl-1H-indazole-5-carboxamide 2,2,2-trifluoroacetate] | 23 nM | 800 nM | 13 nM
5 | Cc1nn([C@@H]2CCN(Cc3cc(Cl)ccc3C(F)(F)F)C2)c2cc(F)c(C(=O)NS(=O)(=O)C3CC3)cc12 [Example 12, (R)-1-(1-(5-chloro-2-(trifluoromethyl)benzyl)pyrrolidin-3-yl)-N-(cyclopropylsulfonyl)-6-fluoro-3-methyl-1H-indazole-5-carboxamide 2,2,2-trifluoroacetate] | 32 nM | 510 nM | 5 nM
6 | Cc1nn(C2CCN(c3ccc(Cl)c(C(F)(F)F)n3)CC2)c2cc(F)c(C(=O)NS(=O)(=O)C3CC3)cc12 [Example 13, 1-(1-(5-chloro-6-(trifluoromethyl)pyridin-2-yl)piperidin-4-yl)-N-(cyclopropylsulfonyl)-6-fluoro-3-methyl-1H-indazole-5-carboxamide 2,2,2-trifluoroacetate] | 250 nM | 2400 nM | 15 nM
7 | Cc1nn(C2CN(Cc3cc(Cl)cc(OC(F)(F)F)c3)C2)c2cc(F)c(C(=O)NS(C)(=O)=O)cc12 [Example 14, 1-(1-(3-chloro-5-(trifluoromethoxy)benzyl)azetidin-3-yl)-6-fluoro-3-methyl-N-(methylsulfonyl)-1H-indazole-5-carboxamide] | 400 nM | 13000 nM | 32 nM
8 | Cc1nn(C2CN(Cc3cc(Cl)cc(OC(F)(F)F)c3)C2)c2cc(F)c(C(=O)NS(=O)(=O)C3CC3)cc12 [Example 15, 1-(1-(3-chloro-5-(trifluoromethoxy)benzyl)azetidin-3-yl)-N-(cyclopropylsulfonyl)-6-fluoro-3-methyl-1H-indazole-5-carboxamide] | 88 nM | 3200 nM | 11 nM
9 | Cc1nn([C@@H]2CCN([C@H](C)c3cc(Cl)cc(Cl)c3)C2)c2cc(F)c(C(=O)NS(C)(=O)=O)cc12 [Example 16, 1-((R)-1-((R)-1-(3,5-dichlorophenyl)ethyl)pyrrolidin-3-yl)-6-fluoro-3-methyl-N-(methylsulfonyl)-1H-indazole-5-carboxamide, trifluoroacetic acid salt] | 100 nM | 13000 nM | 17 nM
10 | Cc1nn([C@@H]2CCN([C@H](C)c3cc(Cl)cc(Cl)c3)C2)c2cc(F)c(C(=O)NS(=O)(=O)C3CC3)cc12 [Example 17, N-(cyclopropylsulfonyl)-1-((R)-1-((R)-1-(3,5-dichlorophenyl)ethyl)pyrrolidin-3-yl)-6-fluoro-3-methyl-1H-indazole-5-carboxamide 2,2,2-trifluoroacetate] | 45 nM | 880 nM | 6 nM
11 | Cc1nn([C@@H]2CCN([C@@H](C)c3cc(Cl)cc(Cl)c3)C2)c2cc(F)c(C(=O)NS(C)(=O)=O)cc12 [Example 18, 1-((R)-1-((S)-1-(3,5-dichlorophenyl)ethyl)pyrrolidin-3-yl)-6-fluoro-3-methyl-N-(methylsulfonyl)-1H-indazole-5-carboxamide, trifluoroacetic acid salt] | 150 nM | 17000 nM | 40 nM
12 | Cc1nn([C@@H]2CCN([C@@H](C)c3cc(Cl)cc(Cl)c3)C2)c2cc(F)c(C(=O)NS(=O)(=O)C3CC3)cc12 [Example 19, N-(cyclopropylsulfonyl)-1-((R)-1-((S)-1-(3,5-dichlorophenyl)ethyl)pyrrolidin-3-yl)-6-fluoro-3-methyl-1H-indazole-5-carboxamide, trifluoroacetic acid salt] | 41 nM | 6300 nM | 12 nM
13 | Cc1nn([C@@H]2CCN(Cc3ccc(Cl)cc3C(F)(F)F)C2)c2cc(F)c(C(=O)NS(=O)(=O)C3CC3)cc12 [Example 20, (R)-1-(1-(4-chloro-2-(trifluoromethyl)benzyl)pyrrolidin-3-yl)-N-(cyclopropylsulfonyl)-6-fluoro-3-methyl-1H-indazole-5-carboxamide, trifluoroacetic acid salt] | 62 nM | 580 nM | 10 nM
